Data taken from patent US20250382332A1, “NOVEL ALPHA-FACTOR BASED PEPTIDES WITH ANTIFUNGAL ACTIVITY” (INVAIO SCIENCES, INC., priority 2024, published 2025).
Peptide text beside a SMILES is read from it.

Test system: Botrytis cinerea (B05.10)
Experiment: Resazurin antifungal assay of 180 alpha-factor peptide variants towards Botrytis (Example 2)
Format: cell-based
Set-up: key to active against Botrytis at 15 μM / active against Botrytis at 10 μM: Peptides that showed greater than 90% inhibition were considered active against Botrytis
Settings: for Inhibition at 10 μM / Inhibition at 20 μM / Inhibition at 50 μM / Inhibition at 100 μM / Inhibition at 15 μM: % inhibition of fungal growth, Botrytis conidia, resazurin; for Inhibition at 20 μM: peptide 20 μM; for Inhibition at 50 μM: peptide 50 μM; for Inhibition at 100 μM: peptide 100 μM
Summary of the method: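 Resazurin viability read-out (570/620 nm fluorescence) after a 24 h, 20° C incubation of B05.10 conidia, 5000 per well, with peptide at final 10-100 μM. Growth inhibition (%) was derived by subtracting conidia-only fluorescence; four replicates per treatment.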

Structure (SMILES)	Inhibition at 10 μM (peptide 10 μM) [%]	Inhibition at 20 μM [%]	Inhibition at 50 μM [%]	Inhibition at 100 μM [%]	Inhibition at 15 μM (peptide 15 μM) [%]	active against Botrytis at 10 μM (peptide 10 μM)	active against Botrytis at 15 μM (peptide 15 μM)
CSCC[C@H](NC(=O)[C@@H]1CCCN1C(=O)[C@H](CCC(N)=O)NC(=O)CNC(=O)[C@@H](NC(=O)[C@H](CCCCN)NC(=O)[C@H](Cc1ccccc1)NC(=O)[C@H](CCC(N)=O)NC(=O)[C@H](CC(C)C)NC(=O)[C@H](CC(C)C)NC(=O)[C@H](Cc1c[nH]cn1)NC(=O)[C@@H](N)Cc1c[nH]c2ccccc12)C(C)C)C(=O)N[C@@H](Cc1ccc(O)cc1)C(=O)O [compound 25] (H-WHLLQFKVGQPMY-OH; N-terminus and C-terminus assumed)	<90	<90	92.63	100			
CSCC[C@H](NC(=O)[C@@H]1CCCN1C(=O)[C@H](CCC(N)=O)NC(=O)CNC(=O)[C@@H]1CCCN1C(=O)[C@H](CCCCN)NC(=O)[C@H](Cc1ccccc1)NC(=O)[C@H](CCCCN)NC(=O)[C@H](CC(C)C)NC(=O)[C@@H](NC(=O)[C@H](Cc1c[nH]cn1)NC(=O)[C@@H](N)CCCCN)C(C)C)C(=O)N[C@@H](Cc1ccc(O)cc1)C(=O)O [compound 87] (H-KHVLKFKPGQPMY-OH; N-terminus and C-terminus assumed)	<90	98.89	100	100	<90		
CC[C@H](C)[C@H](NC(=O)[C@H](CCCNC(=N)N)NC(=O)[C@H](CC(C)C)NC(=O)[C@H](Cc1c[nH]c2ccccc12)NC(=O)[C@H](CCC(N)=O)NC(=O)[C@@H](N)Cc1c[nH]c2ccccc12)C(=O)N[C@@H](CCCCN)C(=O)N[C@@H](CO)C(=O)NCC(=O)N[C@@H](CCC(N)=O)C(=O)NCC(=O)N[C@@H](CCSC)C(=O)N[C@@H](Cc1ccc(O)cc1)C(=O)O [compound 73] (H-WQWLRIKSGQGMY-OH; N-terminus and C-terminus assumed)	<90	<90	100	100			
CC[C@H](C)[C@H](NC(=O)[C@H](Cc1ccccc1)NC(=O)[C@H](CS)NC(=O)[C@@H](N)CCCCN)C(=O)N[C@@H](CCC(N)=O)C(=O)N[C@@H](CC(C)C)C(=O)N[C@@H](CCCCN)C(=O)N1CCC[C@H]1C(=O)NCC(=O)N[C@@H](CCC(N)=O)C(=O)N1CCC[C@H]1C(=O)N[C@@H](CCSC)C(=O)N[C@@H](Cc1ccc(O)cc1)C(=O)O [compound 140] (H-KCFIQLKPGQPMY-OH; N-terminus and C-terminus assumed)			<90	90.65			
CC[C@H](C)[C@H](NC(=O)[C@H](CCC(N)=O)NC(=O)[C@H](CC(C)C)NC(=O)CNC(=O)[C@H](CO)NC(=O)[C@@H]1CCCN1)C(=O)N[C@@H](CCCCN)C(=O)N[C@H](C(=O)NCC(=O)N[C@@H](CCC(N)=O)C(=O)N1CCC[C@H]1C(=O)N[C@@H](CCSC)C(=O)N[C@@H](Cc1ccc(O)cc1)C(=O)O)C(C)C [compound 121] (H-PSGLQIKVGQPMY-OH; N-terminus and C-terminus assumed)			<90	<90			
CSCC[C@H](NC(=O)[C@@H]1CCCN1C(=O)[C@H](CCC(N)=O)NC(=O)CNC(=O)[C@H](CCCNC(=N)N)NC(=O)[C@H](CCC(N)=O)NC(=O)[C@H](Cc1ccccc1)NC(=O)[C@H](CCC(=O)O)NC(=O)[C@H](CC(C)C)NC(=O)[C@H](Cc1c[nH]c2ccccc12)NC(=O)[C@H](Cc1c[nH]cn1)NC(=O)[C@@H](N)Cc1c[nH]c2ccccc12)C(=O)N[C@@H](Cc1ccc(O)cc1)C(=O)O [compound 167] (H-WHWLEFQRGQPMY-OH; N-terminus and C-terminus assumed)			<90	<90			
CSCC[C@H](NC(=O)[C@@H]1CCCN1C(=O)[C@H](CCC(N)=O)NC(=O)CNC(=O)[C@H](C)NC(=O)[C@H](CCCNC(=N)N)NC(=O)[C@H](CC(C)C)NC(=O)[C@H](CCCNC(=N)N)NC(=O)CNC(=O)[C@H](Cc1c[nH]c2ccccc12)NC(=O)[C@H](Cc1c[nH]cn1)NC(=O)[C@@H](N)CCCCN)C(=O)N[C@@H](Cc1ccc(O)cc1)C(=O)O [compound 68] (H-KHWGRLRAGQPMY-OH; N-terminus and C-terminus assumed)	97.09	100	100	100	99.23	active	active
CC[C@H](C)[C@H](NC(=O)[C@H](Cc1c[nH]c2ccccc12)NC(=O)[C@H](Cc1c[nH]cn1)NC(=O)[C@@H](N)Cc1c[nH]c2ccccc12)C(=O)N[C@@H](CCC(N)=O)C(=O)N[C@@H](Cc1ccccc1)C(=O)N[C@@H](CCCCN)C(=O)N1CCC[C@H]1C(=O)NCC(=O)N[C@@H](CCC(N)=O)C(=O)N[C@@H](CO)C(=O)N[C@@H](CCSC)C(=O)N[C@@H](Cc1ccc(O)cc1)C(=O)O [compound 26] (H-WHWIQFKPGQSMY-OH; N-terminus and C-terminus assumed)	<90	<90	91.39	100			
CSCC[C@H](NC(=O)[C@@H]1CCCN1C(=O)[C@H](CCC(N)=O)NC(=O)CNC(=O)[C@@H]1CCCN1C(=O)[C@H](CCCCN)NC(=O)[C@H](CC(C)C)NC(=O)[C@H](CO)NC(=O)[C@@H](NC(=O)[C@H](Cc1c[nH]c2ccccc12)NC(=O)[C@H](Cc1c[nH]cn1)NC(=O)[C@@H]1CCCN1)C(C)C)C(=O)N[C@@H](Cc1ccc(O)cc1)C(=O)O [compound 160] (H-PHWVSLKPGQPMY-OH; N-terminus and C-terminus assumed)			<90	<90			
CSCC[C@H](NC(=O)[C@@H]1CCCN1C(=O)[C@H](CO)NC(=O)CNC(=O)[C@H](CCCNC(=N)N)NC(=O)[C@H](CCCCN)NC(=O)[C@H](CC(C)C)NC(=O)[C@H](CC(N)=O)NC(=O)[C@@H](NC(=O)[C@H](CC(=O)O)NC(=O)[C@H](Cc1c[nH]cn1)NC(=O)[C@@H](N)Cc1c[nH]c2ccccc12)C(C)C)C(=O)N[C@@H](Cc1ccc(O)cc1)C(=O)O [compound 176] (H-WHDVNLKRGSPMY-OH; N-terminus and C-terminus assumed)			<90	<90			
CC[C@H](C)[C@H](NC(=O)[C@H](Cc1c[nH]c2ccccc12)NC(=O)[C@H](CCC(=O)O)NC(=O)[C@@H](N)CCCCN)C(=O)N[C@@H](CCC(N)=O)C(=O)N[C@@H](CC(C)C)C(=O)N[C@@H](CCCCN)C(=O)N[C@@H](CC(C)C)C(=O)NCC(=O)N[C@@H](CCC(N)=O)C(=O)N1CCC[C@H]1C(=O)N[C@@H](CCSC)C(=O)N[C@@H](Cc1ccc(O)cc1)C(=O)O [compound 31] (H-KEWIQLKLGQPMY-OH; N-terminus and C-terminus assumed)			<90	<90			
